Source: the supplement of paper PMC11997997

Legend:
[1] = test system: Mycobacterium tuberculosis CDC1551 (intracellular, in murine BMDM); test: area under intracellular growth-inhibition dose-response curve (AUC (% inhibition x dose, relative)); higher = more potent; details: duration: 6 days; dose range: 0.13-80 uM, 8 points
Method in brief: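 Luciferase-expressing M. tuberculosis CDC1551 was used at multiplicity of infection 1 for 1 h to infect primary murine bone marrow-derived macrophages in 384-well opaque plates, 24 h after seeding. Treatment followed for 6 days with an 8-dose, 2.5-fold series at final concentrations of 80–0.13 μM. GraphPad Prism was used to calculate the area under the growth-inhibition dose–response curve from Bright-Glo luciferin readings normalised to a reference drug control and the lowest-concentration wells.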

[2] = test system: murine bone marrow-derived macrophages; test: area under cytotoxicity dose-response curve (AUC (% cytotoxicity x dose, relative)); higher = more cytotoxic; details: duration: 6 days; dose range: 0.13-80 uM, 8 points
Method in brief: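 Cytotoxicity is given as the area under the dose–response curve, computed in GraphPad Prism version 10. Primary murine bone marrow-derived macrophages in opaque 384-well plates received an 8-point, 2.5-fold dilution series (final 80–0.13 μM) for 6 days at 37 °C in 5% CO2. Viability was measured by Promega's CellTiter-Glo luminescence assay, with percent cytotoxicity normalised to vehicle and positive control wells.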

| SMILES | area under intracellular growth-inhibition dose-response curve [1] | area under cytotoxicity dose-response curve [2] |
| --- | --- | --- |
| Cc1ccc(S(=O)(=O)Nc2c(C)n(C)n(-c3ccccc3)c2=O)cc1C(=O)OC(C)C(=O)c1ccccc1 (configuration not stated) | 17 | 6.34 |
| CCOC(=O)c1cnc(-n2nc(C)cc2C)nc1NCCc1ccccc1 | 247 | 21.7 |
| C/C(=N\NC(N)=S)c1ccncc1 | 138 | 113 |
| CSc1sccc1/C=N/NC(=O)c1ccncc1 | 249 | 15.4 |
| N#Cc1ccc(NCC(=O)N2CCN(S(=O)(=O)c3ccccc3)CC2)cc1 | 56.7 | < 0 |
| CCn1cc(C(=O)NCCc2ccccc2)c(=O)c2cc(S(=O)(=O)N3CCCC3)ccc21 | 203 | 74.8 |
| Nc1ccc(S(=O)(=O)Nc2cnc3ccccc3n2)cc1 | 156 | < 0 |
| NC(=S)N/N=C/c1c[nH]c2ccccc12 | 231 | 35.6 |
| CC[C@H]1OC(=O)[C@H](C)[C@@H](O[C@H]2C[C@@](C)(OC)[C@@H](O)[C@H](C)O2)[C@H](C)[C@@H](O[C@@H]2O[C@H](C)C[C@H](N(C)C)[C@H]2O)[C@](C)(O)C[C@@H](C)C(=NOCOCCOC)[C@H](C)[C@@H](O)[C@]1(C)O | 204 | 7.74 |
| CCS(=O)(=O)N1CCN(C(=O)CCC2CCCC2)CC1 | 214 | 19.5 |
| CC(C)OC(=O)c1c2c(n3ccccc13)C(=O)c1ccccc1C2=O | 209 | 36.2 |
| CSc1nsc(SCC(=O)N2CCCCC2)n1 | 93.5 | 59 |
| COc1ccc(NC(=O)C/C(C)=N/NC(=O)c2ccncc2)c([N+](=O)[O-])c1 | 169 | 129 |
| COCC(=O)Nc1nnc(Cc2ccc(OC)cc2)s1 | 159 | 21.6 |
| O=C(NCc1ccco1)c1csc2c1CCCCC2 | 212 | 55.5 |
| Cc1ccc(C2=NCCn3c2c2ccc(C(F)(F)F)cc2[n+]3[O-])cc1 | 161 | < 0 |
| CCN1C(=O)/C(=C\NC2CCCC(C)C2C)SC1=S (configuration not stated) | 226 | 97.6 |
| O=C(NC1CCCC1)c1cc2ccccc2o1 | 225 | 56.4 |
| C/C(=N/NC(=O)c1ccncc1)c1ccc(NC(=O)c2ccccc2)cc1 | 240 | 28.2 |
| CCOc1ccc(OCCC(=O)NNC(=O)c2ccncc2)cc1 | 272 | 1.82 |
| Cc1cc(C(=O)N/N=C/c2ccc([N+](=O)[O-])o2)c(C)o1 | 142 | 105 |
| O=C(C=Cc1cccs1)c1ccc(Cl)s1 | 235 | 8.27 |
| COc1ccc(OCc2n(CC(=O)OC3CC(C)CCC3C(C)C)c3ccccc3[n+]2C)cc1.[Cl-] (configuration not stated) | 139 | 58.8 |
| CCOc1ccc(/C=N/n2cc(-c3ccccc3)nc2S)cc1 | 265 | < 0 |
| CCN1/C(=C\c2ccc3ccccc3[n+]2CC)Sc2cc(C)ccc21.[I-] | 117 | 175 |
| CCOc1ccc(NC(=S)Nc2ccc(OC)cc2)cc1 | 233 | 13 |

| SMILES | area under intracellular growth-inhibition dose-response curve [1] | area under cytotoxicity dose-response curve [2] |
| --- | --- | --- |
| CC1CCC(C(C)C)C(OC(=O)C[n+]2cc(-c3ccc(Cl)cc3)n3c2CCCCC3)C1.[Cl-] (configuration not stated) | 94.6 | 107 |
| COc1ccc(N2C(C)=CC(=Cc3sc4ccccc4[n+]3C)C=C2C)cc1.[I-] | < 0 | 87.2 |
| O=C(CSc1ccccc1F)NNC(=O)c1ccncc1 | 230 | 38.8 |
| CCCN(CCC)CC(O)Cn1cc(/C=C/C(=O)c2ccccc2)c2ccccc21 (configuration not stated) | 226 | 9.39 |
| CNC[C@H](Cc1ccccc1)NC[C@@H](Cc1cccc2ccccc12)NCCc1ccc(C)cc1 | 53.8 | 108 |
| CCC(=O)N1CCN(c2ccc(NC(=S)NC(=O)COc3ccccc3)cc2)CC1 | 194 | 76.2 |
| COc1c(N2CCN(C(=S)NCc3ccccc3)C(C)C2)c(F)cc2c(=O)c(C(=O)O)cn(C3CC3)c12 (configuration not stated) | 165 | < 0 |
| COc1cccc(/C=N/NC(N)=S)c1OS(=O)(=O)c1ccccc1 | 237 | 94.4 |
| O=C(CCCOc1ccccc1)NNC(=O)c1ccncc1 | 263 | < 0 |
| Cn1c(=O)n(C)c2cc(/C=N/NC(N)=S)ccc21 | 262 | < 0 |
| CCOC(=O)c1ccc(N2CN(CC)CNC2=S)cc1 | 254 | 10.1 |
| O=C(NC1CCCCCCC1)c1ccc(Br)cc1 | 268 | < 0 |
| Cc1ccc(-c2nnc(NC(=O)c3ccc([N+](=O)[O-])o3)o2)c(C)c1 | 78.2 | 91.5 |
| O=C(N/N=C/c1ccc([N+](=O)[O-])o1)c1cc2ccccc2o1 | 106 | 43.2 |
| O=C(NCc1ccccc1)C1COc2ccccc2O1 (configuration not stated) | 193 | 14.8 |
| CCCCCOc1ccc(C(=O)CCC(=O)NNC(=O)c2ccncc2)cc1 | 224 | 75.4 |
| O=C(N/N=C/c1cccn1-c1ccccc1)c1ccncc1 | 251 | 57.4 |
| O=C(COc1ccccc1)N1CCN(c2ccccc2)CC1 | 122 | 10 |
| O=C(NN=Cc1ccc2c(c1)OCO2)c1ccncc1 | 238 | 65.5 |
| COc1ccc(CN(C)C(=O)COC(=O)c2cc([N+](=O)[O-])ccc2N2CCCC2)c(OC)c1OC | 31 | 66.2 |
| O=C(NC1CCCCCC1)c1ccco1 | 214 | 47.2 |
| Cc1nnc(SCC2=C(C(=O)O)N3C(=O)C(NC(=O)Cn4nc(C(F)F)cc4C)C3SC2)s1 (configuration not stated) | 215 | < 0 |
| Cc1c(Cl)c(C(F)F)nn1CC(=O)NC1C(=O)N2C(C(=O)O)=C(CSc3nnnn3C)CSC12 (configuration not stated) | 151 | 121 |
| Cc1ccc2sc(N3CCN(C(=O)c4ccc([N+](=O)[O-])o4)CC3)nc2c1C | 12.2 | 11.3 |
| CCC[C@@H](CN1CCC[C@H]1CN1C(N)=NC[C@@H]1Cc1ccccc1)N1C[C@@H](Cc2ccccc2)N(CCCC2CCCC2)C1=N | 200 | 52.7 |
